Data reported in US7550497B2, “Phosphoramide derivatives” (Palau Pharma, S.A., priority 2002, dated 2009).

Columns and labels:
[1] = test system: carrageenan-induced paw edema; assay: Rat carrageenan-induced paw edema assay; format: in vivo; conditions: male Sprague Dawley rats, 3 mg/kg i.v., 10 min before carrageenan, paw volume 1-4 h
Procedure: Test 1.—Rat Carrageenan-Induced Paw Edema Assay
Male Sprague Dawley rats (150-175 g) are used. The animals are fasted during 18 hours prior to the experiment and kept with water ad libitum, and are randomly distributed into the different groups of treatment. Inflammation is induced by injecting 0.1 mL of 1% λ-carrageenan solution (Sigma) to the animals' right hindpaw, and the inflammatory response (increase in paw volume) is measured with a plethysmometer (UGO BASILE). Paw volumes are measured just before the administration of test compounds and at 1, 2, 3 and 4 hours after the injection of carrageenan. The compounds are administered through the tail vein, dissolved in DMSO and saline (1 mL/Kg), 10 minutes before the injection of carrageenan. At the same time, 5 mL of water are administered by the oral route in order to facilitate hydration and subsequent inflammatory reaction. The percentages of inhibition of the different treatments tested are calculated by comparing the area under the curve obtained for the treated animals versus the one obtained for the control group. Said areas are obtained by integration from a graphical representation of paw volume versus time.
The results obtained with representative compounds of the present invention are shown in the following table, where the % of inhibition of inflammation at a dose of 3 mg/kg i.v. of test compound are reported.

[2] = test system: carrageenan-induced hyperalgesia; assay: Rat carrageenan-induced hyperalgesia test; format: in vivo; conditions: male Sprague Dawley rats, 3 mg/Kg intravenous, especially at 120 min after administration
Procedure: Test 3.—Rat Carrageenan-Induced Hyperalgesia Test
Male Sprague Dawley rats, randomly distributed into the different groups of treatment, are used. Inflammation is induced by injection of a carrageenan suspension (0.75 mg per paw in 0.05 mL of saline) into the animals' right hind foot pad. One hour 45 min later the test compounds are administered by intravenous route. Two hours after carrageenan injection, hyperalgesia is induced at different times in both hindpaws by using a heat source. At each time, the time of latency till the withdrawal of the paw from the heat source is determined for the control group (vehicle) and the treatment groups, and the result is expressed as the increase of the latency time of the inflammed paw of the treated group versus the control group.

| Molecule | % inhibition of inflammation (paw volume AUC vs control) [1] [%] | analgesic activity (increase of latency time of the inflamed paw vs control) [2] |
| --- | --- | --- |
| Diethyl N-[4-[4-chloro-5-(3-fluoro methoxyphenyl)imidazol-1-yl]phenylsulfonyl]phosphoramidate [Example 1] | 20.7 | – |
| CCOP(=O)([O-])NS(=O)(=O)c1ccc(-n2cnc(Cl)c2-c2ccc(OC)c(F)c2)cc1.[Na+] [Example 4, Ethyl N-[4-[4-chloro-5-(3-fluoro-4-methoxyphenyl)imidazol-1-*yl]phenylsulfonyl]phosphoramidate Sodium Salt] | 23.3 | – |
| COc1ccc(-c2c(Cl)ncn2-c2ccc(S(=O)(=O)NP(=O)(O)O)cc2)cc1F [Example 6, N-[4-[4-Chloro-5-(3-fluoro-4-methoxyphenyl)imidazol-1-yl]phenylsulfonyl]phosphoramidic Acid] | 34.8 | significant analgesic activity |
